No end group written: not given here.
Columns and labels:
[1] = target: HLA-A*11:01 (Homo sapiens, UniProt P04439, A114D/D185E/E176A/F33Y/L180Q/S129P/T187R); test: REVEAL Epitope Discovery System in vitro MHC-peptide binding assay; details: binding normalized to positive control peptide set at 100%, >50 considered good or high affinity binding
Protocol: (§1) Actual binding affinities for certain HLA class I alleles (A*02:01, A*03:01, A*11:01, and B*08:01) were assessed in vitro for exemplary overlapping 9 amino acid peptide sequences within a portion of the 26 amino acid junction region spanning the CD28 and 4-1BB junction. Specifically, assessment was of a series of overlapping 9-mer peptides derived from the sequence […] (set forth in SEQ ID NO: 7), which contains a portion of the CD28 transmembrane domain and 4-1BB costimulatory domain spanning the junction between the domains (bond joining the two amino acids noted in underline). In addition, a series of overlapping 9-mer peptides of each of a number of different variants of this portion also were assessed, each variant containing a mutation or mutations in this region as described in Example 2.
(§2) The various 9-mer overlapping peptides were synthesized and their purity tested by MALDI-TOF Mass Spectrometry. The synthetic peptides were then incubated with recombinant MHC molecules to assess binding properties using the REVEAL Epitope Discovery System, which is a high-throughput binding assay that measures the degree to which each peptide is able to stabilize a ternary MHC-peptide complex (Prolmmune, Oxford, United Kingdom). Each peptide was separately tested for this ability with respect to each of the HLA class I alleles, normalized to the degree observed for a positive control (known T cell epitope for the relevant allele). The results are reported as a score, in which the binding was normalized to the positive control peptide set at 100%. In this analysis, a score of greater than 50 generally was considered to represent good or high affinity binding.

[2] = target: HLA-A*02:01 (Homo sapiens, UniProt P04439, D140Y/D185E/D98H/E176V/E277Q/G131W/G231S/I119V/I121R/I166T/I218V/L300P/L318F/N151K/N90K/P208A/P217A/Q86G/Q94H/R138H/R169H/T345S); test: as above; details: binding normalized to positive control peptide set at 100%, greater than 50 considered good or high affinity binding
Protocol: as §1, §2

[3] = target: HLA-B*08:01 (Homo sapiens, UniProt P01889, A93T/A95T/D138N/E176V/E187T/K202T/Q94N/R180D/S35A/V36M/Y33D/Y91F); test: as above; details: binding normalized to positive control peptide set at 100%, >50 considered good or high affinity binding
Protocol: as §1, §2

[4] = target: HLA-A*03:01 (Homo sapiens, UniProt P04439); test: as above; details: REVEAL score, binding normalized to positive control peptide set at 100%; greater than 50 considered good or high affinity binding
Protocol: as §1, §2

[5] = system: PBMCs of subjects treated with CD19-specific CAR T cells; test: ELISpot assay for specific immune response to individual CAR peptides; format: cell-based, human; details: PBMCs of patients with detected CAR-specific immune response after CD19 CAR T cell infusion
Protocol: Individual ELISpot assays were performed using an anti-cytokine capture antibody to assess the presence or absence of a specific immune response for each of these individual hits (see Berger et al. (2006); Berger et al. (2001); Riddell et al. (1996); and Berger et al. (2005), supra). Specific immune responses against peptides with sequences within the VH portion of the scFv of the CAR were detected in both patients assessed (including regions within the FR1, CDR1, and FR2 regions for one patient and within the FR3 for the other). […] These two overlapping 15-mer peptides had the amino acid sequences […] (SEQ ID NO: 8) and […] (SEQ ID NO: 9, also set forth in SEQ ID NO:165), respectively. In another study following administration with a different CAR having a murine scFv, CD28 transmembrane and costimulatory domains and a CD3 zeta domain, using similar methods, an immune response also was detected for one subject against a pool containing VH portions of an anti-CD19 scFv and for another subject in a pool containing junction portions.

| Compound | A*11:01 In Vitro Score [1] | A*02:01 In Vitro Score [2] | B*08:01 In Vitro Score [3] | A*03:01 In Vitro [4] | specific immune response against peptide (ELISpot) [5] |
| --- | --- | --- | --- | --- | --- |
| FIIFWVHRG | 0.90 | 37.30 | 0.20 | 0.00 | – |
| IFWVARGRK | 34.90 | 1.00 | 0.00 | 53.70 | – |
| IIFWVSRGR | 68.90 | 2.60 | 0.00 | 25.30 | – |
| IFWVHRGRK | 36.60 | 7.10 | 0.10 | 37.80 | – |
| AFIIFWVHR | 34.90 | 0.30 | 0.30 | 0.30 | – |
| FWVLRGRKK | 5.00 | 3.30 | 0.00 | 0.40 | – |
| FIIFWVLRG | 2.40 | 7.20 | 0.20 | 0.10 | – |
| IFWVQRGAK | 61.30 | 11.70 | 0.20 | 17.00 | – |
| IIFWVHRGR | 77.50 | 4.70 | 0.20 | 30.10 | – |
| IIFWVKRGR | 54.50 | 1.70 | 0.00 | 24.30 | – |
| WVSRGRKKL | 4.40 | 2.30 | 6.20 | 2.10 | – |
| IFWVQRGRK | 128.50 | 6.10 | 0.00 | 36.70 | – |
| WVKRGRKKS | 6.70 | 3.90 | 4.30 | 0.90 | – |
| CC[C@H](C)[C@H](N)C(=O)N[C@H](C(=O)N[C@@H](Cc1ccccc1)C(=O)N[C@@H](Cc1c[nH]c2ccccc12)C(=O)N[C@H](C(=O)N[C@@H](CCCCN)C(=O)N[C@@H](CCCNC(=N)N)C(=O)NCC(=O)N[C@@H](CC(N)=O)C(=O)O)C(C)C)[C@@H](C)CC | 42.10 | 9.30 | 0.90 | 4.30 | – |
| IFWVQRGSK | 103.30 | 33.50 | 0.00 | 20.30 | – |
| CC(C)[C@H](NC(=O)[C@H](Cc1c[nH]c2ccccc12)NC(=O)[C@@H](N)Cc1ccccc1)C(=O)N[C@@H](C)C(=O)N[C@@H](CCCNC(=N)N)C(=O)NCC(=O)N[C@@H](CCCNC(=N)N)C(=O)N[C@@H](CCCCN)C(=O)N[C@@H](CCCCN)C(=O)O | 8.90 | 13.50 | 0.00 | 5.00 | – |
| FIIFWVQRG | 1.50 | 16.80 | 0.60 | 0.40 | – |
| FWVHRGRKK | 5.60 | 1.60 | 0.00 | 3.60 | – |
| AFIIFWVKRGRKKLL | – | – | – | – | specific immune responses also were detected |
| WVLRGRKKL | 3.20 | 2.40 | 4.00 | 0.70 | – |
| CC[C@H](C)[C@H](N)C(=O)N[C@@H](Cc1ccccc1)C(=O)N[C@@H](Cc1c[nH]c2ccccc12)C(=O)N[C@H](C(=O)N[C@@H](CCCCN)C(=O)N[C@@H](CCCNC(=N)N)C(=O)NCC(=O)N[C@@H](Cc1c[nH]cn1)C(=O)N[C@@H](CCCCN)C(=O)O)C(C)C | 30.90 | 2.20 | 3.20 | 9.00 | – |
| FWVKRGAKK | 13.20 | 4.30 | 0.30 | 4.70 | – |
| FWVKRGRKKLLYIFK | – | – | – | – | specific immune responses also were detected |
| CC(C)C[C@H](NC(=O)[C@H](CCCCN)NC(=O)[C@H](CCCCN)NC(=O)[C@H](CCCNC(=N)N)NC(=O)CNC(=O)[C@H](CCCNC(=N)N)NC(=O)[C@H](C)NC(=O)[C@@H](NC(=O)[C@@H](N)Cc1c[nH]c2ccccc12)C(C)C)C(=O)O | 13.80 | 8.80 | 32.40 | 1.30 | – |

The next lines start with results.

| A*11:01 In Vitro Score [1] | A*02:01 In Vitro Score [2] | B*08:01 In Vitro Score [3] | A*03:01 In Vitro [4] | Compound | specific immune response against peptide (ELISpot) [5] |
| --- | --- | --- | --- | --- | --- |
| 29.00 | 13.00 | 0.00 | 3.60 | IIFWVQRGN | – |
| 109.20 | 0.70 | 0.30 | 1.50 | VAFIIFWVK | – |
| 25.90 | 0.50 | 1.90 | 5.70 | AFIIFWVKR | – |
| 3.10 | 4.50 | 3.10 | 0.90 | WVKRGRKKA | – |
| 4.10 | 2.40 | 65.90 | 0.90 | WVKRGNKKL | – |
| 5.10 | 0.20 | 0.40 | 0.10 | FIIFWVSRG | – |
| 56.50 | 95.30 | 0.20 | 2.70 | IIFWVQRGA | – |
| 5.70 | 5.20 | 1.90 | 6.40 | FWVQRGRKK | – |
| 34.60 | 1.20 | 0.10 | 0.70 | VAFIIFWVR | – |
| 10.70 | 4.30 | 32.00 | 1.50 | WVQRGNKKL | – |
| 0.20 | 0.20 | 0.00 | 0.00 | VAFIIFWVL | – |
| 67.50 | 16.10 | 0.10 | 23.20 | IFWVQRGNK | – |
| 6.80 | 0.80 | 0.00 | 1.90 | FWVQRGSKK | – |
| 100.00 | 13.60 | 0.40 | 16.20 | CC[C@H](C)[C@H](N)C(=O)N[C@H](C(=O)N[C@@H](Cc1ccccc1)C(=O)N[C@@H](Cc1c[nH]c2ccccc12)C(=O)N[C@H](C(=O)N[C@@H](CCCCN)C(=O)N[C@@H](CCCNC(=N)N)C(=O)NCC(=O)N[C@@H](CO)C(=O)O)C(C)C)[C@@H](C)CC | – |
| 22.10 | 24.50 | 65.70 | 10.00 | WVKRGLKKL | – |

— patent US20200297760A1, “COMPOSITIONS AND METHODS FOR REDUCING IMMUNE RESPONSES AGAINST CHIMERIC ANTIGEN RECEPTORS” (Juno Therapeutics, Inc., priority 2015, published 2020)
